Data reported in PubChem BioAssay AID248 (DTP/NCI, 2004).
Values joined by “and” are separate entries in the source; they are usually repeats but may differ in a detail not shown here. Equal entries are not always repeated. Toxic doses and inconclusive results are not listed.

Test system: L1210 leukemia ip in BDF1 mice, survival T/C
Test: NCI In Vivo Anticancer Drug Screen. Data for tumor model L1210 Leukemia (intraperitoneal) in B6D2F1 (BDF1) mice
Details: endpoint: mean survival time, higher = longer survival
Method in brief: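 In this screen, tumor-bearing mice given compound are compared to those given vehicle, and their survival values are reported as a treated-to-control quotient.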

[1] = dose: 12.5 mg/kg/injection, schedule: Q01DX009 (ip), vehicle: saline with Tween-80
[2] = dose: 25.0 mg/kg/injection, schedule: Q01DX009 (ip), vehicle: saline with Tween-80
[3] = dose: 25.0 mg/kg/injection, schedule: Q04DX003 (ip), vehicle: Klucel (hydroxypropylcellulose) (HPC)
[4] = dose: 50.0 mg/kg/injection, schedule: Q01DX009 (ip), vehicle: saline with Tween-80
[5] = dose: 50.0 mg/kg/injection, schedule: Q04DX003 (ip), vehicle: Klucel (hydroxypropylcellulose) (HPC)
[6] = dose: 100.0 mg/kg/injection, schedule: Q01DX009 (ip), vehicle: Klucel (hydroxypropylcellulose) (HPC)
[7] = dose: 100.0 mg/kg/injection, schedule: Q01DX009 (ip), vehicle: saline with Tween-80
[8] = dose: 100.0 mg/kg/injection, schedule: Q04DX003 (ip), vehicle: Klucel (hydroxypropylcellulose) (HPC)
[9] = dose: 200.0 mg/kg/injection, schedule: Q01DX009 (ip), vehicle: Klucel (hydroxypropylcellulose) (HPC)
[10] = dose: 200.0 mg/kg/injection, schedule: Q01DX009 (ip), vehicle: saline with Tween-80
[11] = dose: 200.0 mg/kg/injection, schedule: Q04DX003 (ip), vehicle: Klucel (hydroxypropylcellulose) (HPC)
[12] = dose: 400.0 mg/kg/injection, schedule: Q01DX009 (ip), vehicle: Klucel (hydroxypropylcellulose) (HPC)
[13] = dose: 400.0 mg/kg/injection, schedule: Q01DX009 (ip), vehicle: saline with Tween-80
[14] = dose: 400.0 mg/kg/injection, schedule: Q04DX003 (ip), vehicle: Klucel (hydroxypropylcellulose) (HPC)
[15] = dose: 100.0 mg/kg/injection, schedule: Q04DX003 (ip), vehicle: saline with Tween-80
[16] = dose: 100.0 mg/kg/injection, schedule: Q04DX003 (ip), vehicle: saline
[17] = dose: 200.0 mg/kg/injection, schedule: Q04DX003 (ip), vehicle: saline
[18] = dose: 400.0 mg/kg/injection, schedule: Q04DX003 (ip), vehicle: saline
[19] = dose: 50.0 mg/kg/injection, schedule: Q01DX009 (ip), vehicle: saline
[20] = dose: 100.0 mg/kg/injection, schedule: Q01DX009 (ip), vehicle: saline
[21] = dose: 200.0 mg/kg/injection, schedule: Q01DX009 (ip), vehicle: saline

Q: How did the T/C (dose: 100.0 mg/kg/injection, schedule: Q04DX002 (ip), vehicle: saline with Tween-80) turn out when `CSc1ccc(OC(=O)Nc2ccccc2C)cc1C` was run?
A: 100 % of control

Q: What about the T/C (dose: 200.0 mg/kg/injection, schedule: Q04DX002 (ip), vehicle: saline with Tween-80) of the same molecule?
A: 100 % of control

Q: What about the T/C (dose: 400.0 mg/kg/injection, schedule: Q04DX002 (ip), vehicle: saline with Tween-80) of the same molecule?
A: 118 % of control

Q: Which results are given for `CN(/N=N/c1nc[nH]c1C(N)=O)C(C)(C)C`?
A: T/C [1]: 103 % of control; T/C (dose: 12.5 mg/kg/injection, schedule: Q04DX009 (ip), vehicle: saline with Tween-80): 98 % of control; T/C [2]: 93 % of control; T/C [3]: 100 % of control; T/C (dose: 25.0 mg/kg/injection, schedule: Q04DX009 (ip), vehicle: saline with Tween-80): 103 % of control; T/C [4]: 101 % of control; T/C [5]: 103 % of control; T/C (dose: 50.0 mg/kg/injection, schedule: Q04DX009 (ip), vehicle: saline with Tween-80): 103 % of control; T/C [6]: 97 % of control; T/C [7]: 103 % of control; T/C [8]: 102 % of control; T/C (dose: 100.0 mg/kg/injection, schedule: Q04DX009 (ip), vehicle: saline with Tween-80): 103 % of control; T/C [9]: 96 % of control; T/C [10]: 103 % of control; T/C [11]: 111 % of control; T/C (dose: 200.0 mg/kg/injection, schedule: Q04DX009 (ip), vehicle: saline with Tween-80): 101 % of control; T/C [12]: 97 % of control; T/C [13]: 97 % of control; T/C [14]: 105 % of control; T/C (dose: 400.0 mg/kg/injection, schedule: Q04DX009 (ip), vehicle: saline with Tween-80): 101 % of control

Q: How did the T/C [7] turn out when `OC(c1ccc(Br)cc1)(c1cccs1)C1CC1` (stereo unspecified) was run?
A: 98 % of control

Q: And the T/C [15]?
A: 103 % of control

Q: And the T/C [10]?
A: 98 % of control

Q: What about the T/C (dose: 200.0 mg/kg/injection, schedule: Q04DX003 (ip), vehicle: saline with Tween-80) of the same molecule?
A: 100 % of control

Q: And the T/C [13]?
A: 98 % of control

Q: What about the T/C (dose: 400.0 mg/kg/injection, schedule: Q04DX003 (ip), vehicle: saline with Tween-80) of the same molecule?
A: 97 % of control

Q: How did the T/C (dose: 12.5 mg/kg/injection, schedule: Q01DX001 (ip), vehicle: other) turn out when `CCOC(=O)c1ccc(N=CNc2ccc(C(=O)OCC)cc2)cc1` was run?
A: 106 % of control

Q: And the T/C [1]?
A: 100 % of control

Q: And the T/C (dose: 12.5 mg/kg/injection, schedule: Q04DX003 (ip), vehicle: saline with Tween-80)?
A: 96 % of control

Q: And the T/C (dose: 25.0 mg/kg/injection, schedule: Q01DX001 (ip), vehicle: other)?
A: 95 % of control

Q: What about the T/C [2] of the same molecule?
A: 93 % of control

Q: What about the T/C (dose: 25.0 mg/kg/injection, schedule: Q04DX003 (ip), vehicle: saline with Tween-80) of the same molecule?
A: 95 % of control

Q: What about the T/C (dose: 50.0 mg/kg/injection, schedule: Q01DX001 (ip), vehicle: other) of the same molecule?
A: 93 % of control

Q: What about the T/C [4] of the same molecule?
A: 96 % of control

Q: And the T/C (dose: 50.0 mg/kg/injection, schedule: Q04DX003 (ip), vehicle: saline with Tween-80)?
A: 95 % of control

Q: How did the T/C [16] turn out when `CC(=O)NCCCC1CCCCC1CN` (stereo unspecified) was run?
A: 104 % of control

Q: What about the T/C [17] of the same molecule?
A: 114 % of control

Q: And the T/C [18]?
A: 114 % of control

Q: `O=[As](O)(O)Cc1cccc(F)c1` was tested. Which T/C [3] did it give?
A: 96 % of control

Q: What about the T/C [5] of the same molecule?
A: 101 % of control

Q: And the T/C [8]?
A: 87 % of control

Q: What does the source list for `O=C1OC(c2ccccc2)=N/C1=C/c1cccs1`?
A: T/C [6]: 104 % of control; T/C [8]: 98 % of control; T/C [9]: 97 % of control; T/C [11]: 104 % of control; T/C [12]: 101 % of control; T/C [14]: 106 % of control

Q: For `Cc1cccc(NC(N)=O)c1`, which T/C [19] is on record?
A: 96 % of control

Q: And the T/C [20]?
A: 97 % of control

Q: And the T/C [16]?
A: 95 % of control

Q: What about the T/C [21] of the same molecule?
A: 94 % of control

Q: What about the T/C [17] of the same molecule?
A: 97 % of control

Q: What about the T/C [18] of the same molecule?
A: 94 % of control

Q: With `CN(C)N=Nc1nn(C2CCCO2)cc1C(N)=O` (stereo unspecified) as the molecule, how does the T/C (dose: 100.0 mg/kg/injection, schedule: Q01DX005 (ip), vehicle: saline) read?
A: 150 % of control

Q: What does the source list for `NC(=S)N1N=C(c2ccccc2)CC1=O`?
A: T/C (dose: 75.0 mg/kg/injection, schedule: Q01DX001 (ip), vehicle: carboxymethylcellulose (CMC)): 107 % of control; T/C (dose: 150.0 mg/kg/injection, schedule: Q01DX001 (ip), vehicle: carboxymethylcellulose (CMC)): 96 % of control; T/C (dose: 300.0 mg/kg/injection, schedule: Q01DX001 (ip), vehicle: carboxymethylcellulose (CMC)): 96 % of control

Q: For `S=C1CCNCC1`, which T/C [16] is on record?
A: 88 % of control

Q: `COc1ccc(CCN=C2C3CC4CC(C3)CC2C4)cc1OC` was tested. Which T/C (dose: 100.0 mg/kg/injection, schedule: Q01DX001 (ip), vehicle: saline) did it give?
A: 98 % of control

Q: What about the T/C (dose: 200.0 mg/kg/injection, schedule: Q01DX001 (ip), vehicle: saline) of the same molecule?
A: 98 % of control

Q: What about the T/C (dose: 400.0 mg/kg/injection, schedule: Q01DX001 (ip), vehicle: saline) of the same molecule?
A: 103 % of control

Q: What does the source list for `CNCCCN1c2ccccc2CCc2ccccc21`?
A: T/C (dose: 3.12 mg/kg/injection, schedule: Q01DX009 (ip), vehicle: saline): 123 % of control; T/C (dose: 5.0 mg/kg/injection, schedule: Q01DX001 (ip), vehicle: saline): 105 % of control; T/C (dose: 6.25 mg/kg/injection, schedule: Q01DX009 (ip), vehicle: saline): 115 % of control; T/C (dose: 10.0 mg/kg/injection, schedule: Q01DX001 (ip), vehicle: saline): 100 % of control; T/C (dose: 12.5 mg/kg/injection, schedule: Q01DX009 (ip), vehicle: saline): 115 % of control; T/C (dose: 20.0 mg/kg/injection, schedule: Q01DX001 (ip), vehicle: saline): 111 % of control; T/C (dose: 25.0 mg/kg/injection, schedule: Q01DX009 (ip), vehicle: saline): 110 % of control; T/C (dose: 25.0 mg/kg/injection, schedule: Q04DX003 (ip), vehicle: saline): 101 % of control; T/C (dose: 40.0 mg/kg/injection, schedule: Q01DX001 (ip), vehicle: saline): 95 % of control; T/C [19]: 106 % of control; T/C (dose: 50.0 mg/kg/injection, schedule: Q04DX003 (ip), vehicle: saline): 97 % of control; T/C (dose: 80.0 mg/kg/injection, schedule: Q01DX001 (ip), vehicle: saline): 92 % of control

Q: Which T/C (dose: 25.0 mg/kg/injection, schedule: Q01DX001 (ip), vehicle: saline with Tween-80) does the source give for `N#CC(c1ccc(Cl)cc1)C(C/C(=N/Nc1ccc([N+](=O)[O-])cc1[N+](=O)[O-])c1ccccc1)c1ccccc1` (stereo unspecified) here?
A: 91 % of control

Q: And the T/C (dose: 50.0 mg/kg/injection, schedule: Q01DX001 (ip), vehicle: saline with Tween-80)?
A: 93 % of control

Q: And the T/C (dose: 100.0 mg/kg/injection, schedule: Q01DX001 (ip), vehicle: saline with Tween-80)?
A: 95 % of control

Q: With `Cc1ccc(S(=O)(=O)N(CCC#N)CCC#N)cc1` as the molecule, how does the T/C (dose: 25.0 mg/kg/injection, schedule: Q01DX009 (ip), vehicle: Klucel (hydroxypropylcellulose) (HPC)) read?
A: 106 % of control

Q: What about the T/C (dose: 50.0 mg/kg/injection, schedule: Q01DX009 (ip), vehicle: Klucel (hydroxypropylcellulose) (HPC)) of the same molecule?
A: 112 % of control

Q: What about the T/C [6] of the same molecule?
A: 97 % of control and 101 % of control

Q: What about the T/C [9] of the same molecule?
A: 92 % of control

Q: And the T/C [12]?
A: 96 % of control

Q: `O=S(=O)(c1ccccc1)N1CCOC1=S` was tested. Which T/C (dose: 100.0 mg/kg/injection, schedule: Q04DX003 (ip), vehicle: acetone) did it give?
A: 93 % of control

Q: And the T/C (dose: 200.0 mg/kg/injection, schedule: Q04DX003 (ip), vehicle: acetone)?
A: 101 % of control

Q: And the T/C (dose: 400.0 mg/kg/injection, schedule: Q04DX003 (ip), vehicle: acetone)?
A: 93 % of control

Q: Which T/C [19] does the source give for `CCN(CC)CCOC(=O)c1cccc(N)c1` here?
A: 92 % of control

Q: And the T/C [20]?
A: 111 % of control

Q: And the T/C [21]?
A: 103 % of control

Q: How did the T/C [7] turn out when `Cc1ccc(S(=O)(=O)Nc2ccccc2-c2nc3ccc([N+](=O)[O-])cc3c(=O)o2)cc1` was run?
A: 104 % of control

Q: What about the T/C [10] of the same molecule?
A: 96 % of control

Q: For `C=CCCCCCCCCC(=O)NC[n+]1cccc(O)c1`, which T/C [15] is on record?
A: 87 % of control

Q: For `O=C1CN=C(c2ccccc2Cl)c2cc([N+](=O)[O-])ccc2N1`, which T/C (dose: 100.0 mg/kg/injection, schedule: Q04DX002 (ip), vehicle: Klucel (hydroxypropylcellulose) (HPC)) is on record?
A: 93 % of control

Q: What about the T/C (dose: 200.0 mg/kg/injection, schedule: Q04DX002 (ip), vehicle: Klucel (hydroxypropylcellulose) (HPC)) of the same molecule?
A: 108 % of control

Q: What about the T/C (dose: 400.0 mg/kg/injection, schedule: Q04DX002 (ip), vehicle: Klucel (hydroxypropylcellulose) (HPC)) of the same molecule?
A: 86 % of control
